From patent US8455520B2, “Soluble epoxide hydrolase inhibitors, compositions containing such compounds and methods of treatment” (Merck Sharp & Dohme Corp., priority 2007, dated 2013)

Target: T1, human sEH enzyme (Homo sapiens, UniProt P34913)
T1 construct: His-tag (N, cleaved yes); made in house; host or cells: E. coli
T1 sequence (P34913 1-555): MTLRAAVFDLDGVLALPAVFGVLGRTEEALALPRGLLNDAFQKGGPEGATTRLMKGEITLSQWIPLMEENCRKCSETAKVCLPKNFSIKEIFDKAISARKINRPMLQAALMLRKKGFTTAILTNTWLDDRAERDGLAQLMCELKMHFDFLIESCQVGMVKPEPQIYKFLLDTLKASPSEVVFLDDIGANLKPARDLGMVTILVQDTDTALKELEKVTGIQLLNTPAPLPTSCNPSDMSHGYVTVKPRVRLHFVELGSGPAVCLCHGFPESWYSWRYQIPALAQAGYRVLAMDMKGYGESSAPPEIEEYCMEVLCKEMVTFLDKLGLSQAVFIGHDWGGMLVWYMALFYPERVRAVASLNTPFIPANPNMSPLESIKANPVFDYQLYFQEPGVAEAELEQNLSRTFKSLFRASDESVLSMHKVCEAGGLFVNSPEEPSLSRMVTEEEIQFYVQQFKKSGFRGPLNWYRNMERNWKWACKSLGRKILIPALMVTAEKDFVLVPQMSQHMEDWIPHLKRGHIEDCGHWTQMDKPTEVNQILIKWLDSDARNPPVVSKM
Assay: sEH human enzyme assay (fluorescence based enzyme in vitro assay)
Assay type: biochemical
Settings: recombinant human sEH about 1 nM, fluorescence substrate S7 10 uM, pH7.0, 25° C.; read-out: IC50 [nM] for human sEH enzyme inhibition
Text: Preparation of Recombinant sEH Human Enzyme
The DNA for expressing sEH was designed based on a […] sEH cDNA. Necessary Modifications were introduced to optimize for its expression both in E. coli and insect cells. The designed DNA fragment encodes a protein sequence that is identical to full length human sEH, and the DNA was synthesized in vitro. The DNA was then subcloned into the pET100 vector that will generate a fusion protein with an N-terminal His-tag. The recombinant protein was expressed in E. coli. The sEH enzyme was affinity purified by a Ni^++ column. His-tag was removed by Enter Kinase (EK) digestion. The purified enzyme aliquots were frozen and held at −80° C. for later use.
Fluorescence Based Enzyme In Vitro Assay
For each assay (100 ul), an aliquot of enzymes (about 1 nM final concentration) was incubated with a fluorescence substrate, S7 (10 uM final concentration), in sEH assay buffer (25 mM HEPES, pH7.0, 0.1 mg/ml BSA) in a 96-well plate. The kinetic reaction reading (Ex330/Em465) was conducted using a plate reader, Spectra max (Molecular Devices) at 25° C.

| SMILES | IC50 |
| --- | --- |
| O=C(O)CCCC1(c2ccccc2)CCCN(C(=O)Nc2ccc(Cl)cc2)C1 (stereo not drawn) [Example 52] | 12 nM |
| O=C(Nc1ccc(Cl)cc1)N1CCCC(CCc2nnn[nH]2)(c2ccccc2)C1 (stereo not drawn) [Example 47] | 5 nM |
| O=C(Nc1ccc(C(F)(F)F)cc1)N1CCCC(Cc2ccccc2)(C(=O)NCCc2c[nH]c3ccccc23)C1 (stereo not drawn) [Example 20] | < 1 nM |
| O=C(Nc1ccc(Cl)cc1)N1CCCC(COCc2cc(C(F)(F)F)cc(C(F)(F)F)c2)(c2ccccc2)C1 (stereo not drawn) [Example 1] | 2 nM |
| CC1(c2ccccc2)CCCN(C(=O)NCCCc2cccnc2)C1 (stereo not drawn) [Example 33] | 6 nM |
| O=C(Nc1ccc(Cl)cc1)N1CCCC(Cc2ccc(Cl)cc2)(c2ccccc2)C1 (stereo not drawn) [Example 5] | < 1 nM |
| NC(=O)CCC1(c2ccccc2)CCCN(C(=O)Nc2ccc(Cl)cc2)C1 (stereo not drawn) [Example 45] | 5 nM |
| Cc1nc(C2(C)CCCN(C(=O)Nc3ccc(C(F)(F)F)cc3)C2)no1 (stereo not drawn) [Example 49] | 5 nM |
| CC1(c2ccccc2)CCCN(C(=O)NC2CCc3ccccc3CC2)C1 (stereo not drawn) [Example 37] | 2 nM |
| O=C(O)CCC1(c2ccccc2)CCCN(C(=O)Nc2ccc(-n3nc(C(F)(F)F)cc3C(F)(F)F)cc2)C1 (stereo not drawn) [Example 11] | 3 nM |
| CC1(c2ccccc2)CCCN(C(=O)Nc2cccnc2)C1 (stereo not drawn) [Example 32] | 306 nM |
| CC1(c2ccccc2)CCCN(C(=O)NCCCCc2ccccc2)C1 (stereo not drawn) [Example 31] | 1 nM |
| CC1(c2ccccc2)CCCN(C(=O)NCCc2ccc3nccnc3c2)C1 (stereo not drawn) [Example 34] | 5 nM |
| CCOC(=O)C1(Cc2nccn2Cc2ccccc2)CCCN(C(=O)Nc2ccc(C(F)(F)F)cc2)C1 (stereo not drawn) [Example 24] | 7 nM |
| COC(=O)CCC1(c2ccc(F)cc2)CCCN(C(=O)NCCCc2ccccc2)C1 (stereo not drawn) [Example 7] | < 1 nM |
| CC1(c2ccccc2)CCCN(C(=O)Nc2noc3ccccc23)C1 (stereo not drawn) [Example 13] | 59 nM |
| CC1N(C(=O)Nc2ccc(Cl)cc2)CCCC1(C)c1ccccc1 (stereo not drawn) [Example 4] | 5 nM |
| O=C(O)CCC1(c2ccc(F)cc2)CCCN(C(=O)NCCCc2ccccc2)C1 (stereo not drawn) [Example 8] | 6 nM |
| O=C(O)CCC1(c2ccc(-c3ccccc3)cc2)CCCN(C(=O)Nc2ccc(OC(F)(F)F)cc2)C1 (stereo not drawn) [Example 6] | 8 nM |
| N#CC1(Cc2ccccc2)CCCN(C(=O)Nc2ccc(C(F)(F)F)cc2)C1 (stereo not drawn) [Example 17] | 2 nM |
| N#CCCC1(c2ccccc2)CCCN(C(=O)Nc2ccc(Cl)cc2)C1 (stereo not drawn) [Example 46] | 3 nM |

Next, values leading:

| IC50 | SMILES |
| --- | --- |
| 10 nM | CC1(c2ccccc2)CCCN(C(=O)NC2C3CC4CC(C3)CC2C4)C1 (stereo not drawn) [Example 29] |
| < 1 nM | COC(=O)CCCC1(c2ccccc2)CCCN(C(=O)Nc2ccc(Cl)cc2)C1 (stereo not drawn) [Example 51] |
| 1 nM | CC1(c2ccccc2)CCCN(C(=O)NC2CCc3ccccc3C2)C1 (stereo not drawn) [Example 36] |
| 6 nM | CC1(c2ccccc2)CCCN(C(=O)NCc2ccc(-c3ccccc3Cl)cc2)C1 (stereo not drawn) [Example 40] |
| 3 nM | CCOC(=O)C1(Cc2nc3ccccc3[nH]2)CCCN(C(=O)Nc2ccc(C(F)(F)F)cc2)C1 (stereo not drawn) [Example 22] |
| 7 nM | CC1(c2ccccc2)CCCN(C(=O)NCc2ccc(-c3ccc4[nH]ccc4c3)cc2)C1 (stereo not drawn) [Example 42] |
| < 1 nM | CCOC(=O)C1(Cc2c(Cl)cccc2Cl)CCCN(C(=O)Nc2ccc(C(F)(F)F)cc2)C1 (stereo not drawn) [Example 9] |
| 3 nM | CC1(c2ccccc2)CCCN(C(=O)NCc2ccc(-c3cccc4cnccc34)cc2)C1 (stereo not drawn) [Example 44] |
| 7 nM | CC1(c2ccccc2)CCCN(C(=O)NC[C@H]2C[C@@H]2c2ccccc2)C1 (stereo in doubt) [Example 28] |
| 1.5 nM | CC1(c2ccccc2)CCCN(C(=O)NCc2ccc(-c3cccnc3)cc2)C1 (stereo not drawn) [Example 41] |
| 3 nM | CCOC(=O)C1(Cc2cccc3ccccc23)CCCN(C(=O)Nc2ccc(C(F)(F)F)cc2)C1 (stereo not drawn) [Example 21] |
| 5 nM | O=C(O)CCC1(c2ccccc2)CCCN(C(=O)Nc2ccc(Cl)cc2)C1 (stereo not drawn) [Example 3] |
| 5 nM | O=C(NC1(Cc2ccccc2)CCCN(C(=O)Nc2ccc(C(F)(F)F)cc2)C1)OCc1ccccc1 (stereo not drawn) [Example 15] |
| 1 nM | O=C(CCC1(c2ccccc2)CCCN(C(=O)Nc2ccc(Cl)cc2)C1)Nc1nnn[nH]1 (stereo not drawn) [Example 48] |
| 6 nM | CC1(c2ccccc2)CCCN(C(=O)NCc2ccc(-c3ccc4cn[nH]c4c3)cc2)C1 (stereo not drawn) [Example 43] |
| 2 nM | CC1(c2ccccc2)CCCN(C(=O)NCC2CCc3ccccc3C2)C1 (stereo not drawn) [Example 35] |
| 341 nM | CC1(c2ccccc2)CCCN(C(=O)Nc2nnc(-c3ccccc3)s2)C1 (stereo not drawn) [Example 12] |
| 5 nM | O=C(NCc1ccc(Cl)c(Cl)c1)N1CCCC(CCc2noc(C(F)(F)F)n2)(c2ccccc2)C1 (stereo not drawn) [Example 18] |
| 5 nM | CNC(=O)CCC1(c2ccccc2)CCCN(C(=O)Nc2ccc(Cl)cc2)C1 (stereo not drawn) [Example 50] |
| 30 nM | CC1(c2ccccc2)CCCN(C(=O)NCc2nc3ccccc3s2)C1 (stereo not drawn) [Example 38] |
| 2 nM | O=C(Nc1ccc(C(F)(F)F)cc1)N1CCCC(CO)(Cc2ccccc2)C1 (stereo not drawn) [Example 14] |
| < 1 nM | CC1(c2ccccc2)CCCN(C(=O)NCCc2ccc(Cl)cc2)C1 (stereo not drawn) [Example 30] |
| 1 nM | CC1(c2ccccc2)CCCN(C(=O)NC2CC2c2ccccc2)C1 (stereo not drawn) [Example 27] |
| 3 nM | COC(=O)CCC1(c2ccccc2)CCCN(C(=O)Nc2ccc(-n3nc(C(F)(F)F)cc3C(F)(F)F)cc2)C1 (stereo not drawn) [Example 10] |
| 3 nM | CN(C)C(=O)C1(Cc2ccccc2)CCCN(C(=O)Nc2ccc(C(F)(F)F)cc2)C1 (stereo not drawn) [Example 25] |
| 6 nM | CNC(=O)C1(Cc2ccccc2)CCCN(C(=O)Nc2ccc(C(F)(F)F)cc2)C1 (stereo not drawn) [Example 16] |
| 2 nM | O=C(Nc1ccc(C(F)(F)F)cc1)N1CCCC(Cc2ccccn2)(C(=O)OCc2ccccc2)C1 (stereo not drawn) [Example 23] |
